The results in this text go back to US11059795B2, “Androgen receptor modulators and methods for their use” (ESSA Pharma, Inc., priority 2018, dated 2021).

pIC50: −log10 of the molar value.

One series deals with T1, androgen receptor (AR) (Homo sapiens, UniProt P10275, T878A).
T1 construct: LNCaP cells were transiently transfected with the PSA (6.1 kb)-luciferase reporter for 24 h; endogenous in cells; host or cells: LNCaP
T1 sequence (P10275 1-920 T878A): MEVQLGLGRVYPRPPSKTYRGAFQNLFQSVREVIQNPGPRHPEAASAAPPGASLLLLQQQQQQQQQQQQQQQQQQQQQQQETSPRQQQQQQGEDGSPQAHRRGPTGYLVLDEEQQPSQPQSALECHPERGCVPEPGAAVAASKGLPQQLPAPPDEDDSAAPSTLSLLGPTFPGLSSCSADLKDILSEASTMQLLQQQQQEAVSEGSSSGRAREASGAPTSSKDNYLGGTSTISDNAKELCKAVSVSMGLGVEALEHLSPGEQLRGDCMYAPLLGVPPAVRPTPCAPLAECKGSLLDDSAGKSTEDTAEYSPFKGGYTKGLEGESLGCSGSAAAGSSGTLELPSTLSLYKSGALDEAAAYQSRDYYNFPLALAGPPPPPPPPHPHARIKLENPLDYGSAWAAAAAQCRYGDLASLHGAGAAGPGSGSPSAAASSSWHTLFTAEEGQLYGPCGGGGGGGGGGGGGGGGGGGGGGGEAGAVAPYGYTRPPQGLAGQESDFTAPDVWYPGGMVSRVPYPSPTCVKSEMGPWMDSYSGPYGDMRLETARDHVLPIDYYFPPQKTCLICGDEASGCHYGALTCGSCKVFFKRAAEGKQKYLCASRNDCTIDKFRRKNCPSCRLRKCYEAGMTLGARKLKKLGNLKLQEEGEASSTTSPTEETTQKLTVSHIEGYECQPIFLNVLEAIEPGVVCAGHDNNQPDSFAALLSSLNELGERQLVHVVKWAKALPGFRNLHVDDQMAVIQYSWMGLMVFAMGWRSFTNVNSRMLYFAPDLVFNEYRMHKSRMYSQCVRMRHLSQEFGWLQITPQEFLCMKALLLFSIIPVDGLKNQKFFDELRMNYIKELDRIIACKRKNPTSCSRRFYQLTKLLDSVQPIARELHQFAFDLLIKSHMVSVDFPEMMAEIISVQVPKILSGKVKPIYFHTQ
In words: Androgen-induced PSA (6.1 kb)-luciferase reporter assay in LNCaP cells. Conditions: LNCaP cells transfected with PSA (6.1 kb)-luciferase reporter, R1881 1 nM, 24 h; read-out: PSA-Luc IC50 Range. It counts as cell-based. In a few lines:
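Read-out is firefly luminescence (10 s) in LNCaP lysates, normalized to protein, from an ARE-containing PSA (6.1 kb)-luciferase reporter driven by androgen.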

The nature of series [1]: Microsomal stability assay, mouse liver microsomes. In kind it is in vitro ADME. The following applies: mouse, liver microsomes, pH 7.4, mouse liver microsomes, 1 μM compound, 0.5 mg/mL protein, 37° C.; read-out: MLM +30/− NADPH: Clint (μL/min/mg protein). In a few lines:
(§1)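 Compound at 1 μM was incubated at 37° C with 0.5 mg/mL liver microsomes and 1 mM NADPH and/or 1 mM UDPGA (with alamethicin) in 100 mM potassium phosphate pH 7.4, 3 mM MgCl2. Samples were taken at 0, 15, 30 and 60 min and measured by LC/MS/MS. t½ came from compound loss relative to 0 min, and Clint was scaled with 45 mg microsomal protein/g liver.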

Series [2] can be described thus: Microsomal stability assay, human liver microsomes. In kind it is in vitro ADME. Conditions: pH 7.4, 1 μM compound, 0.5 mg/mL protein, 37° C., read-out: HLM +/− NADPH: Clint (μL/min/mg protein). In a few lines:
as §1

Series [3] is described as follows: Hepatocyte stability assay, mouse hepatocytes. In kind it is in vitro ADME. Conditions: mouse, cryopreserved hepatocytes, 1 μM compound, 0.5 million cells/mL, 37° C., read-out: MH +/− NADPH: Clint (μL/min/million cells). In outline:
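Cryopreserved rat, human or mouse hepatocytes at 0.5 million cells/mL in DMEM with 1 μM compound, 37° C, sampled at 0, 60, 120 and 180 min and quenched with acetonitrile/formic acid. Parent loss vs 0-min by LC/MS/MS gave t½, and Clint = 0.693/t½ × mL incubation/million cells.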

In the case of `CC(C)(c1ccc(OCc2nc(C(N)=O)cs2)cc1)c1cc(Cl)c(OCCCl)c(C#N)c1` [Compound A171, 2-((4-(2-(3-chloro-4-(2-chloroethoxy)-5-cyanophenyl)propan-2-yl)phenoxy)methyl)thiazole-4-carboxamide], the pIC50 on androgen receptor (AR) was 5.70 to 6.30. Moreover, the microsomal CLint at 1 μM in series [1] and in series [2] was less than 12 µL/min/mg throughout. Further, the hepatocyte CLint at 1 μM in series [3] was 4 to 18 µL/min/1e6 cells.

Take `CC(C)(c1ccc(OCc2nc(C#N)cs2)cc1)c1cc(Cl)c(OCCCl)c(C#N)c1` [Compound A172, 2-((4-(2-(3-chloro-4-(2-chloroethoxy)-5-cyanophenyl)propan-2-yl)phenoxy)methyl)thiazole-4-carbonitrile]: the negative logarithm of the IC50 (pIC50) on androgen receptor (AR) is greater than 6.30. For the same molecule, the microsomal CLint at 1 μM in series [1] and in series [2] was less than 12 µL/min/mg throughout. Also, in series [3], the hepatocyte CLint at 1 μM was less than 4 µL/min/1e6 cells.

`CC(C)(c1ccc(OCc2nccc(NS(C)(=O)=O)n2)cc1)c1cc(Cl)c(OCCCl)c(C#N)c1` [Compound A184, N-(2-((4-(2-(3-chloro-4-(2-chloroethoxy)-5-cyanophenyl)propan-2-yl)phenoxy)methyl)pyrimidin-4-yl)methanesulfonamide]: the pIC50 at androgen receptor (AR) is less than 5.70. Also, the microsomal CLint at 1 μM in series [1] and in series [2] was less than 12 µL/min/mg each time. Further, the hepatocyte CLint at 1 μM in series [3] was less than 4 µL/min/1e6 cells.

Regarding `CC(C)(c1ccc(OCc2cncc(NS(C)(=O)=O)n2)cc1)c1cc(Cl)c(OCCCl)c(C#N)c1` [Compound A185, N-(6-((4-(2-(3-chloro-4-(2-chloroethoxy)-5-cyanophenyl)propan-2-yl)phenoxy)methyl)pyrazin-2-yl)methanesulfonamide], the negative-log IC50 (pIC50) at androgen receptor (AR) is greater than 6.30. Moreover, the figures for the microsomal CLint at 1 μM in series [1] and in series [2] were 12 to 48 µL/min/mg and less than 12 µL/min/mg, respectively. For the same molecule, the hepatocyte CLint at 1 μM in series [3] was 4 to 18 µL/min/1e6 cells.

With `CC(C)(c1ccc(OCc2nc(NS(C)(=O)=O)nc3c2CCOC3)cc1)c1cc(Cl)c(OCCCl)c(C#N)c1` [Compound A190], the negative logarithm of the IC50 (pIC50) at androgen receptor (AR) is 5.70 to 6.30. The results for the microsomal CLint at 1 μM in series [1] and in series [2] were no less than 48 µL/min/mg and less than 12 µL/min/mg, respectively. In addition, the hepatocyte CLint at 1 μM in series [3] was no less than 18 µL/min/1e6 cells.

Turning to `CC(C)(c1ccc(OCc2cnc(CN)o2)cc1)c1cc(Cl)c(OCCCl)c(C#N)c1` [Compound A192], the negative-log IC50 (pIC50) at androgen receptor (AR) is greater than 6.30. For the same molecule, the microsomal CLint at 1 μM in series [1] and in series [2] was 12 to 48 µL/min/mg in each case. Besides, in series [3], the hepatocyte CLint at 1 μM was no less than 18 µL/min/1e6 cells.

Take `Cn1c(COc2ccc(C(C)(C)c3cc(Cl)c(OCCCl)c(C#N)c3)cc2)ccc1S(C)(=O)=O` [Compound A193]: the pIC50 at androgen receptor (AR) was 5.70 to 6.30. Besides, the microsomal CLint at 1 μM in series [1] and in series [2] was no less than 48 µL/min/mg throughout. Moreover, the hepatocyte CLint at 1 μM in series [3] fell in the range of 4 to 18 µL/min/1e6 cells.

For `CC(C)(c1ccc(OCc2cccc(NS(C)(=O)=O)n2)cc1)c1cc(Cl)c(OCCCl)c(C#N)c1` [Compound A194], the pIC50 at androgen receptor (AR) was 5.70 to 6.30. Moreover, the microsomal CLint at 1 μM in series [1] and in series [2] was less than 12 µL/min/mg in each case. Also, the hepatocyte CLint at 1 μM in series [3] was less than 4 µL/min/1e6 cells.

Consider `CC(C)(c1ccc(OCc2ccnc(NS(C)(=O)=O)c2)cc1)c1cc(Cl)c(OCCCl)c(C#N)c1` [Compound A195], for which the pIC50 on androgen receptor (AR) is greater than 6.30. For the same molecule, the microsomal CLint at 1 μM in series [1] and in series [2] was less than 12 µL/min/mg in each case. The hepatocyte CLint at 1 μM in series [3] lay in the range of 4 to 18 µL/min/1e6 cells.

Consider `CC(C)(c1ccc(OCc2cc(NS(C)(=O)=O)ccn2)cc1)c1cc(Cl)c(OCCCl)c(C#N)c1` [Compound A196], for which the negative logarithm of the IC50 (pIC50) at androgen receptor (AR) is 5.70 to 6.30. For the same molecule, the microsomal CLint at 1 μM in series [1] was less than 12 µL/min/mg; in series [2], 12 to 48 µL/min/mg. The hepatocyte CLint at 1 μM in series [3] is less than 4 µL/min/1e6 cells.

On to `CC(C)(c1ccc(OCc2cnc(NS(C)(=O)=O)cn2)cc1)c1cc(Cl)c(OCCCl)c(C#N)c1` [Compound A197], for which the pIC50 at androgen receptor (AR) is 5.70 to 6.30. In addition, the microsomal CLint at 1 μM in series [1] and in series [2] was less than 12 µL/min/mg each time. In series [3], the hepatocyte CLint at 1 μM is less than 4 µL/min/1e6 cells.

Consider `CC(C)(c1ccc(OCc2ccnc(N3CCCCS3(=O)=O)n2)cc1)c1cc(Cl)c(OCCCl)c(C#N)c1` [Compound A198], for which the pIC50 on androgen receptor (AR) was greater than 6.30. The microsomal CLint at 1 μM is 12 to 48 µL/min/mg in series [1] and less than 12 µL/min/mg in series [2]. In addition, the hepatocyte CLint at 1 μM in series [3] lay in the range of 4 to 18 µL/min/1e6 cells.

For `CC(C)(c1ccc(OCc2ccnc(N3CCCS3(=O)=O)n2)cc1)c1cc(Cl)c(OCCCl)c(C#N)c1` [Compound A199], on androgen receptor (AR), the negative logarithm of the IC50 (pIC50) is greater than 6.30. Further, the values for the microsomal CLint at 1 μM in series [1] and in series [2] were no less than 48 µL/min/mg and less than 12 µL/min/mg, respectively. In addition, in series [3], the hepatocyte CLint at 1 μM is 4 to 18 µL/min/1e6 cells.

Consider `CC(C)(c1ccc(OCc2ccnc(C#N)n2)cc1)c1cc(Cl)c(OCCCl)c(C#N)c1` [Compound A200], for which the pIC50 at androgen receptor (AR) is 5.70 to 6.30. The microsomal CLint at 1 μM in series [1] and in series [2] was less than 12 µL/min/mg in each case. Also, the hepatocyte CLint at 1 μM in series [3] was 4 to 18 µL/min/1e6 cells.

For `[2H]c1c([2H])c(C(C)(C)c2cc(Cl)c(OCCCl)c(C#N)c2)c([2H])c([2H])c1OCc1ccnc(NS(C)(=O)=O)n1` [Compound A201], the negative-log IC50 (pIC50) on androgen receptor (AR) is 5.70 to 6.30. Moreover, the microsomal CLint at 1 μM in series [1] and in series [2] was less than 12 µL/min/mg throughout. In addition, in series [3], the hepatocyte CLint at 1 μM was less than 4 µL/min/1e6 cells.

As for `CC(C)(c1ccc(OCc2nc(NS(C)(=O)=O)nc3c2CCC3)cc1)c1cc(Cl)c(OCCCl)c(C#N)c1` [Compound A202], the pIC50 at androgen receptor (AR) was 5.70 to 6.30. Further, the microsomal CLint at 1 μM in series [1] was no less than 48 µL/min/mg; in series [2] it was less than 12 µL/min/mg. Moreover, in series [3], the hepatocyte CLint at 1 μM is no less than 18 µL/min/1e6 cells.

Take `CC(C)(c1ccc(OCc2cnc(NS(C)(=O)=O)nc2)cc1)c1cc(Cl)c(OCCCl)c(C#N)c1` [Compound A204]: the pIC50 on androgen receptor (AR) is greater than 6.30. Moreover, the microsomal CLint at 1 μM in series [1] and in series [2] was less than 12 µL/min/mg in each case. In addition, the hepatocyte CLint at 1 μM in series [3] was less than 4 µL/min/1e6 cells.

With `CC(C)(c1ccc(OCc2coc(S(N)(=O)=O)c2)cc1)c1cc(Cl)c(OCCCl)c(C#N)c1` [Compound A207], the negative logarithm of the IC50 (pIC50) at androgen receptor (AR) was greater than 6.30. Besides, the microsomal CLint at 1 μM in series [1] and in series [2] was less than 12 µL/min/mg each time. Further, in series [3], the hepatocyte CLint at 1 μM was less than 4 µL/min/1e6 cells.

`CC(C)(c1ccc(OCc2coc(S(C)(=O)=O)c2)cc1)c1cc(Cl)c(OCCCl)c(C#N)c1` [Compound A208]: the pIC50 at androgen receptor (AR) was greater than 6.30. In addition, the microsomal CLint at 1 μM in series [1] and in series [2] was less than 12 µL/min/mg each time. The hepatocyte CLint at 1 μM in series [3] was less than 4 µL/min/1e6 cells.

For `CC(=O)NN1C(=O)N(c2ccc(C(C)(C)c3cc(Cl)c(OCCCl)c(Cl)c3)cc2)C(=O)C1(C)C` [Compound B5], the negative logarithm of the IC50 (pIC50) at androgen receptor (AR) was 5.70 to 6.30. The microsomal CLint at 1 μM in series [1] and in series [2] was less than 12 µL/min/mg each time. Further, the hepatocyte CLint at 1 μM in series [3] lay within 4 to 18 µL/min/1e6 cells.
